# Source: patent publication US20260078114A1, “COMPOUND USED AS INHIBITOR OF CDK4 KINASE AND USE THEREOF” (TYK MEDICINES, INC., priority 2022, published 2026)
# Where two headings read alike, the source gives them in different places.
# Experiments:
# [1] = test system: Human breast cancer cell MCF-7; experiment: Cellular antiproliferative assay (MTT, 5 days), MCF-7; assay type: cell-based; conditions: MCF-7 cells, 5 days incubation
# Experimental: (§1) Human breast cancer cell MCF-7, ovarian cancer cell A2780, human mantle cell lymphoma cell JEKO-1. DMEM medium (Bio-Channel), DMSO (dimethyl sulfoxide), MTT (thiazolyl blue), 0.25% EDTA-Tripsin (tryptic digest), 1×PBS (phosphate buffer, PH7.2), 96-well plate (Corning), fetal bovine serum (FBS), 10,000 U/mL penicillin-G/streptomycin, high-speed cryo-centrifuge (EPPENDORF 5810R), enzyme-linked immunoassay (Tecan Spark).
# (§2) • A) Tumor cells were cultured in DMEM (high sugar with 10% FBS and 100 U/mL penicillin-G/streptomycin) at 37° C., 5% CO2 and saturated humidity until 80-90% dense. • B) Removed the culture medium from 10 cm Petri dishes; • C) Rinsed the cells once with 10 ml 1×PBS; • D) Added 4 ml 0.25% EDTA-Tripsin into 37° C., 5% CO2 incubator for trypsin digestion for 5 minutes, transferred to 15 ml centrifuge tube, centrifuged at 200 g for 5 minutes, discarded the supernatant to get cell precipitate; • E) Resuspended with 4 ml DMEM medium, counted and adjust to 50,000 cells/ml. • F) Added cell suspension to 96-well plate with 100 μL per well volume and incubated overnight at 37° C., 5% CO2 incubator.
# (§3) • A) Preparation of gradient dilution solution of the tested compound: the test compound was configured into 1 mM reservoir solution.
# (§4) • A) Taking the cell culture plate and adding 10 μL of 5 mg/ml MTT in the biosafety cabinet; • B) Putting the cell culture plate back into the incubator and continued incubation for 3 hours; • C) Taking the cell culture plate and removing the culture medium, adding 100 μL isopropanol (containing 0.4 mM HCl, 0.1% NP-40), and shaking the bed at room temperature for 30 min; and • D) Determining the absorbance value by selecting 570 nm on a TECAN enzyme-linked immunoassay detector.
# (§5) The % Cell Viability was calculated using the following formula:
# (§6) [formula] • Lum_HC: 0.1% DMSO control cell reading • Lum_Sample: cell readings with compound added • Lum_LC: Blank medium reading
# [2] = test system: ovarian cancer cell A2780; experiment: Cellular antiproliferative assay (MTT, 5 days), A2780; assay type: cell-based, human; conditions: A2780 cells, 5 days incubation
# Experimental: as §1, §2, §3, §4, §5, §6
# [3] = test system: human mantle cell lymphoma cell JEKO-1; experiment: Cellular antiproliferative assay (MTT, 5 days), JEKO-1; assay type: cell-based; conditions: JEKO-1 cells, 5 days incubation
# Experimental: as §1, §2, §3, §4, §5, §6
Structure (SMILES),"IC50 ([1]; Homo sapiens, MCF7, 120 h) [nM]","IC50 ([2]; Homo sapiens, 120 h) [nM]","IC50 ([3]; Homo sapiens, 120 h) [nM]",IC50 ([1]; read-out: MCF7 IC50) [nM],IC50 [2] [nM],IC50 [3] [nM]
"CC(C)n1c(N(C)C)nc2c(F)cc(-c3nc(Nc4ccc(N5CCNCC5)cn4)ncc3Cl)cc21 [TB-18, 6-(5-chloro-2-((5-(piperazin-1-yl)pyridin-2-yl)amino)pyrimidin-4-yl)-4-fluoro-1-isopropyl-N,N-dimethyl-1H-benzo[d]imidazol-2-amine]",≤ 500,≤ 500,≤ 500,–,–,–
CC(C)n1c(N2CCOC2=O)nc2c(F)cc(-c3nc(Nc4ccc(S(=O)(=O)NCCN(C)C)cc4)nc4[nH]cnc34)cc21 [TB-70],≤ 500,≤ 500,≤ 500,–,–,–
"CC(C)n1c(N(C)CCO)nc2c(F)cc(-c3nc(N[C@@H]4CCOC[C@H]4O)ncc3Cl)cc21 [TB-9, (3S,4R)-4-((5-chloro-4-(4-fluoro-2-((2-hydroxyethyl)(methyl)amino)-1-isopropyl-1H-benzo[d]imidazol-6-yl)pyrimidin-2-yl)amino)tetrahydro-2H-pyran-3-ol]",500 to 2000,≤ 500,≤ 500,–,–,–
"COC(=O)N(C)c1nc2c(F)cc(-c3nc(N[C@@H]4CCOC[C@H]4O)ncc3Cl)cc2n1C(C)C [TB-8, methyl (6-(5-chloro-2-(((3S,4R)-3-hydroxytetrahydro-2H-pyran-4-yl)amino)pyrimidin-4-yl)-4-fluoro-1-isopropyl-1H-benzo[d]imidazol-2-yl)(methyl)carbamate]",500 to 2000,≤ 500,≤ 500,–,–,–
"CC(C)n1c(N2CC[C@H](O)C2)nc2c(F)cc(-c3nc(N[C@@H]4CCOC[C@H]4O)ncc3Cl)cc21 [TB-6, (S)-1-(6-(5-chloro-2-(((3S,4R)-3-hydroxytetrahydro-2H-pyran-4-yl)amino)pyrimidin-4-yl)-4-fluoro-1-isopropyl-1H-benzo[d]imidazol-2-yl)pyrrolidin-3-ol]",500 to 2000,≤ 500,≤ 500,–,–,–
"CN1CCn2c1nc1c(F)cc(-c3nc(N[C@@H]4CCOC[C@H]4O)ncc3Cl)cc12 [TB-45, (3S,4R)-4-((5-chloro-4-(8-fluoro-1-methyl-2,3-dihydro-1H-benzo[d]imidazo[1,2-a]imidazol-6-yl)pyrimidin-2-yl)amino)tetrahydro-2H-pyran-3-ol]",≤ 500,≤ 500,≤ 500,–,–,–
"CCS(=O)(=O)N1CCC(Nc2ncc(Cl)c(-c3cc(F)c4nc5n(c4c3)CCCN5C)n2)CC1 [TB-143, 5-chloro-N-(1-(ethylsulfonyl)piperidin-4-yl)-4-(9-fluoro-1-methyl-1,2,3,4-tetrahydrobenzo[4,5]imidazo[1,2-a]pyrimidin-7-yl)pyrimidin-2-amina]",≤ 500,≤ 500,≤ 500,–,–,–
CC1(C)CSc2nc3c(F)cc(-c4nc(N[C@@H]5CCOC[C@H]5O)ncc4Cl)cc3n2C1 [TB-146],–,–,–,≤ 500,≤ 500,≤ 500
CCN1CCN(Cc2ccc(Nc3ncc(Cl)c(-c4cc(F)c5nc(N(C)C)n(C(C)C)c5c4)n3)nc2)CC1 [TB-16],≤ 500,≤ 500,≤ 500,–,–,–
"COc1cc(N2CCNCC2)ccc1Nc1ncc(Cl)c(-c2cc(F)c3nc(N(C)C)n(C(C)C)c3c2)n1 [TB-17, 6-(5-chloro-2-((2-methoxy-4-(piperazin-1-yl)phenyl)amino)pyrimidin-4-yl)-4-fluoro-1-isopropyl-N,N-dimethyl-1H-benzo[d]imidazol-2-amine]",500 to 2000,500 to 2000,500 to 2000,–,–,–
CC(C)n1c(N2CCOC2=O)nc2c(F)cc(-c3nc(NC4CCN(S(=O)(=O)C5CC5)CC4)ncc3Cl)cc21 [TB-33],≤ 500,≤ 500,≤ 500,–,–,–
CN1CCCn2c1nc1c(F)cc(-c3nc(N[C@@H]4CCOC[C@H]4O)ncc3Cl)cc12 [TB-40],≤ 500,≤ 500,≤ 500,–,–,–
"CC(C)n1c(N(C)C)nc2c(F)cc(-c3nc(NC4CCN(S(C)(=O)=O)CC4)ncc3Cl)cc21 [TB-3, 6-(5-chloro-2-((1-(methylsulfonyl)piperidin-4-yl)amino)pyrimidin-4-yl)-4-fluoro-1-isopropyl-N,N-dimethyl-1H-benzo[d]imidazol-2-amine]",≤ 500,≤ 500,≤ 500,–,–,–
